Converted amounts (≈) assume the structure as drawn. Numbered stars: 1 amine (or outer) side, 2 acyl side, 3 side chain; on linkers, the order of the positions; unused ones are H or OH. Bridge positions count the residues as written; N and C are the ends. Square brackets hold non-standard residues; d marks the D form. Peptide text beside a SMILES is read from it. * marks the point of attachment. ξ: configuration not given here. ξAsp(3ξ-OH) = NC(C(=O)O)C(O)C(=O)O; X3 = O=C(C(N[*:1])C(O)CCl)[*:2]; X2 = CCCCCCCCCCCC(O)CC(=O)*; Orn = NCCC[CH](N)C(=O)O; hSer = N[CH](CCO)C(=O)O; Dab = NCC[CH](N)C(=O)O; Dhb = C/C=C(\N)C(=O)O
Assays:
Candida rugosa [1] = assay: Broth microdilution MIC; assay type: cell-based; settings: Table 1 (MICs); Candida rugosa, 2 isolates; 48 hr
Method: (§1) Medium: Liquid RPMI 1640 (RPMI) medium with L-glutamine and without sodium bicarbonate (Sigma Chemical Co., R-6504; St. Louis, Mo.) buffered with 0.165M MOPS (34.54 g/liter) was used for in vitro antifungal tests. The medium was adjusted to pH 7.0 with 10M NaOH and filter sterilized.
(§2) Lipodepsipeptide Dilutions: All stock drug solution concentrations were at least 10-fold higher than the highest concentration tested. AmB, ketoconazole, and the test compounds (SR-E, ST-B, and SS-A) were dissolved in sterile distilled water, 0.2N HCl, and 0.001N HCl, respectively. Each stock solution was diluted to 2× the highest concentration of drug tested with RPMI. Two-fold dilutions were made with RPMI medium.
(§3) Preparation of Inoculum Suspensions: On Sabouraud dextose agar (SDA; BBL, Becton and Dickinson and Co., Cockeysville, Md.) all isolates were subcultured at least twice before use to ensure purity and viability. Candida spp. and Saccharomyces cerevisiae were grown for 24 hr at 35° C. Isolates of Cryptococcus neoformans were grown for 48 hr at 35° C. Yeast cells from at least five 1-mm-diameter colonies were suspended in 5 ml of sterile 0.85% saline. The resulting suspension was vortexed for 15 sec. The turbidity of each mixed suspension was measured at 530 nm and adjusted to 1×10^6 to 5×10^6 CFU/ml by the NCCLS spectrophotometric method described by National Committee for Clinical Laboratory Standards. 1992. Reference method for broth dilution antifungal susceptibility testing of yeasts; proposed standard, NCCLS document M27-P (ISBN 1-56238-186-5). NCCLS, Villanova. The final transmission of each yeast suspension ranged from 85-87%.
(§4) Aspergillus fumigatus and Mucor spp. were grown for 1 wk at 35° C. The dermatophytes, Microsporum spp. and Trichophyton spp., were grown for two wk at 30° C. Fungal spores were washed from the plates of all good spore formers (A. fumigatus, Mucor spp., Microsporum canis and Trichophyton spp.) by placing 5 ml of 0.85% saline with 0.2% Tween 80 on the plates and mixing with an inoculating loop. The spore/mycelium suspension was drawn off with a pipette and allowed to settle for at least 5 min. For the poor spore-forming Microsporum audouinii, the procedure was the same except the spore/mycelial suspension was homogenized with a ground glass tissue homogenizer and then allowed to settle for at least 5 min. A small amount of the supernatant was transferred to 5 ml of sterile saline and vortexed. The stock suspensions of all filamentous fungi were measured at 530 nm and adjusted to 85-87% transmission. The concentration (1×10^6 to 5×10^6 CFU/ml) was determined by hemacytometer count or plate count on SDA. All stock suspensions were diluted 1000-fold with RPMI, or 2× the final desired test inocula. The 2× inoculum was diluted 1:1 when the wells were inoculated, and the desired inoculum size was achieved.
(§5) Broth Microdilution Test: Broth microdilution tests were performed using sterile, disposable, multiwell microdilution plates (96 round U-bottom wells) (Falcon 3077; Becton and Dickinson Labware, Lincoln Park, N.J.). The drugs (2× concentrations) were dispensed into the wells of rows number 1 to 10 of the microdilution plates in 100 μl volumes from highest drug concentration to lowest drug concentration. Each well was inoculated with 100 μl of the corresponding 2× concentrated fungal suspension. The wells of row 11 contained the inoculum with drug-free media as a positive growth control and the wells of row 12 contained uninoculated-drug-free medium as a sterility control.
(§6) Incubation and Scoring of MIC: All cultures were incubated without shaking at the temperature used during subculture. Incubation times were 48 hr for Candida spp., S. cerevisiae, A. fumigatus, and Mucor spp; 72 hr for C. neoformans; and 7 days for Microsporum and Trichophyton spp. […]

Candida tropicalis [2] = assay: Broth microdilution MIC; assay type: cell-based; settings: Table 1 (MICs); Candida tropicalis, 2 isolates; 48 hr
Method: as §1, §2, §3, §4, §5, §6

Cryptococcus neoformans [3] = assay: Broth microdilution MIC; assay type: cell-based; settings: Table 1 (MICs); Cryptococcus neoformans, 14 isolates; 72 hr
Method: as §1, §2, §3, §4, §5, §6

Saccharomyces cerevisiae [4] = assay: Broth microdilution MIC; assay type: cell-based; settings: Table 1 (MICs), 1 strain tested more than once (control ATCC 36375), 48 hr
Method: as §1, §2, §3, §4, §5, §6

Candida parapsilosis [5] = assay: Broth microdilution MIC; assay type: cell-based; settings: Table 1 (MICs), 2 isolates, 48 hr
Method: as §1, §2, §3, §4, §5, §6

Candida lusitaniae [6] = assay: Broth microdilution MIC; assay type: cell-based; settings: Table 1 (MICs), 2 isolates, 48 hr
Method: as §1, §2, §3, §4, §5, §6

Microsporum spp. [7] = assay: Broth microdilution MIC; assay type: cell-based; settings: Table 1 (MICs), 2 isolates, 7 days
Method: as §1, §2, §3, §4, §5, §6

Candida albicans [8] = assay: Broth microdilution MIC; assay type: cell-based; settings: for MIC range: Table 1 (MICs), Candida albicans, 20 isolates, RPMI pH 7.0, 48 hr, Ktz read at score 2, others at score 0
Method: as §1, §2, §3, §4, §5, §6

Trichophyton spp. [9] = assay: Broth microdilution MIC; assay type: cell-based; settings: Table 1 (MICs), 3 isolates, 7 days
Method: as §1, §2, §3, §4, §5, §6

Candida krusei [10] = assay: Broth microdilution MIC; assay type: cell-based; settings: Table 1 (MICs), 2 isolates, 48 hr
Method: as §1, §2, §3, §4, §5, §6

Candida kefyr [11] = assay: Broth microdilution MIC; assay type: cell-based; settings: Table 1 (MICs), 1 isolate, 48 hr
Method: as §1, §2, §3, §4, §5, §6

Candida rugosa [12] = assay: Minimum Fungicidal Concentration (MFC); assay type: cell-based; settings: Table 2, 2 isolates, 24 hr
Method: as §1, §2, §3, §4, §5, §6

Candida tropicalis [13] = assay: Minimum Fungicidal Concentration (MFC); assay type: cell-based; settings: Table 2, 2 isolates, 24 hr
Method: as §1, §2, §3, §4, §5, §6

Saccharomyces cerevisiae [14] = assay: Minimum Fungicidal Concentration (MFC); assay type: cell-based; settings: Table 2, 1 strain tested more than once, 24 hr
Method: as §1, §2, §3, §4, §5, §6

Candida parapsilosis [15] = assay: Minimum Fungicidal Concentration (MFC); assay type: cell-based; settings: Table 2, 2 isolates, 24 hr
Method: as §1, §2, §3, §4, §5, §6

Candida lusitaniae [16] = assay: Minimum Fungicidal Concentration (MFC); assay type: cell-based; settings: Table 2, 2 isolates, 24 hr
Method: as §1, §2, §3, §4, §5, §6

Candida krusei [17] = assay: Minimum Fungicidal Concentration (MFC); assay type: cell-based; settings: Table 2, 2 isolates, 24 hr
Method: as §1, §2, §3, §4, §5, §6

Candida kefyr [18] = assay: Minimum Fungicidal Concentration (MFC); assay type: cell-based; settings: Table 2, 1 isolate, 24 hr
Method: as §1, §2, §3, §4, §5, §6

fungal isolates = assay: Fungicidal activity (MFC), fungal isolates overall; assay type: cell-based, fungi; settings: Table 2 organisms
Method: as §1, §2
Preparation of Inoculum Suspensions: On Sabouraud dextose agar (SDA; BBL, Becton and Dickinson and Co., Cockeysville, Md.) all isolates were subcultured at least twice before use to ensure purity and viability. […] The turbidity of each mixed suspension was measured at 530 nm and adjusted to 1×10^6 to 5×10^6 CFU/ml by the NCCLS spectrophotometric method described by National Committee for Clinical Laboratory Standards. […]
Aspergillus fumigatus and Mucor spp. were grown for 1 wk at 35° C. […] The stock suspensions of all filamentous fungi were measured at 530 nm and adjusted to 85-87% transmission. The concentration (1×10^6 to 5×10^6 CFU/ml) was determined by hemacytometer count or plate count on SDA. […]

Aspergillus fumigatus [19] = assay: Broth microdilution MIC; assay type: cell-based; settings: Table 1 (MICs), 16 isolates, 48 hr
Method: as §1, §2, §3, §4, §5, §6

Aspergillus fumigatus [20] = assay: Minimum Fungicidal Concentration (MFC); assay type: cell-based; settings: Table 2, 16 isolates, 48 hr
Method: as §1, §2, §3, §4, §5, §6

Cryptococcus neoformans [21] = assay: Minimum Fungicidal Concentration (MFC); assay type: cell-based; settings: Table 2, 14 isolates, 48 hr
Method: as §1, §2, §3, §4, §5, §6

Microsporum spp. [22] = assay: Minimum Fungicidal Concentration (MFC); assay type: cell-based; settings: Table 2, 2 isolates, 7 d
Method: as §1, §2, §3, §4, §5, §6

Candida albicans [23] = assay: Minimum Fungicidal Concentration (MFC); assay type: cell-based; settings: Table 2, 20 isolates, subculture on drug-free SDA 24 hr
Method: as §1, §2, §3, §4, §5, §6

Trichophyton spp. [24] = assay: Minimum Fungicidal Concentration (MFC); assay type: cell-based; settings: Table 2, 3 isolates, 7 d
Method: as §1, §2, §3, §4, §5, §6

| SMILES | MIC range (Candida rugosa [1]) [µg/mL] | MIC (μg/ml) range (Candida tropicalis [2]) [µg/mL] | MIC range (Cryptococcus neoformans [3]) [µg/mL] | MFC (μg/ml) range (Saccharomyces cerevisiae [4]) [µg/mL] | MIC range (Candida parapsilosis [5]) [µg/mL] | MIC range (Candida lusitaniae [6]) [µg/mL] | MIC range (Microsporum spp. [7]) [µg/mL] | MIC range (Candida albicans [8]) [µg/mL] | MIC range (Trichophyton spp. [9]) [µg/mL] | MIC (μg/ml) range (Candida krusei [10]) [µg/mL] | MIC (μg/ml) range (Candida kefyr [11]) [µg/mL] | MFC (μg/ml) range (Candida tropicalis [13]) [µg/mL] | MFC (μg/ml) range (Saccharomyces cerevisiae [14]) [µg/mL] | MFC (μg/ml) range (Candida parapsilosis [15]) [µg/mL] | MFC (μg/ml) range (Candida lusitaniae [16]) [µg/mL] | MFC (μg/ml) range (Candida krusei [17]) [µg/mL] | MFC (μg/ml) range (Candida kefyr [18]) [µg/mL] | other results |
| --- | --- | --- | --- | --- | --- | --- | --- | --- | --- | --- | --- | --- | --- | --- | --- | --- | --- | --- |
| CC(=O)N1CCN(c2ccc(OCC3COC(Cn4ccnc4)(c4ccc(Cl)cc4Cl)O3)cc2)CC1 (stereo not shown) [Ktz, ketoconazole, reference compound] | 0.02 (≈ 0.0376 µM) | 0.08 to 0.6 | 0.04 to 0.6 | 0.15 (≈ 0.282 µM) | 0.02 (≈ 0.0376 µM) | 0.02 (≈ 0.0376 µM) | 0.8 to 1.6 | 0.02 to 10 | 0.4 to 3.1 | 0.15 (≈ 0.282 µM) | 0.02 (≈ 0.0376 µM) | 2.5 to 10 | 0.6 to 1.25 | 0.04 (≈ 0.0753 µM) | ≤ 0.02 | 0.15 (≈ 0.282 µM) | 1.25 (≈ 2.35 µM) | MIC, one strain of C. albicans (Candida albicans [8]; one strain of C. albicans resistant to ketoconazole): 10 µg/mL; MFC (μg/ml) range (Candida rugosa [12]): ≤0.02 to 0.08 µg/mL; fungicidal activity (fungal isolates): fungicidal activity only against C. krusei |
| C/C=C1\NC(=O)C(C(C)O)NC(=O)C(CCCN)NC(=O)C(CCO)NC(=O)C(CCN)NC(=O)C(CCN)NC(=O)C(NC(=O)CC(O)CCCCCCCCCCC)COC(=O)C(C(O)CCl)NC(=O)C(C(O)C(=O)O)NC1=O (stereo not shown) [SS-A, syringostatin-A] (X2-S[Dab][Dab][hSer][Orn]T[Dhb][ξAsp(3ξ-OH)][X3]; ester 1-C; configuration not given here) | 10 to 20 | 2.5 to 5 | 2.5 to 10 | 2.5 (≈ 2.12 µM) | 2.5 to 5 | 5 (≈ 4.24 µM) | 2.5 to 5 | 2.5 to 5 | 2.5 to 5 | 10 (≈ 8.48 µM) | 2.5 (≈ 2.12 µM) | 5 (≈ 4.24 µM) | 5 (≈ 4.24 µM) | 2.5 to 10 | 5 (≈ 4.24 µM) | 10 to 20 | 2.5 (≈ 2.12 µM) | MIC range (Aspergillus fumigatus [19]): 5 to 40 µg/mL; MFC (μg/ml) range (Aspergillus fumigatus [20]): 5 to 40 µg/mL; MFC (μg/ml) range (Cryptococcus neoformans [21]): 2.5 to 10 µg/mL; MFC (μg/ml) range (Microsporum spp. [22]): 5 µg/mL (≈ 4.24 µM); MFC (μg/ml) range (Candida albicans [23]): 2.5 to 10 µg/mL; MFC (μg/ml) range (Trichophyton spp. [24]): 5 µg/mL (≈ 4.24 µM) |

— patent publication US5830855A, “Lipodepsipeptides as antifungal and fungicidal agents” (priority 1996, dated 1998)
